# Test results reported in patent US20160037782A1, “COMBINATIONS OF ANTIFUNGAL COMPOUNDS AND TEA TREE OIL” (priority 2011, published 2016).
# Legend:
# rust in garlic plants = test: Control of rust in organically grown garlic plants, field spray trial (Example 2); type: in vivo, Puccinia alli; details: 0.25%
# Method: Organically grown garlic plants were treated with a 53.8% copper hydroxide solution, Timorex Gold, or a mixture of the two. The plants were sprayed six times, on the first day of the trial and then approximately every six days thereafter. Observations were made on days 1 (before spraying), 29 and 40 of the trial. The results are shown in the table below; d.a.a.=days after application; numbers are presented as % of disease severity on leaves. The effectiveness may have been comprised by the relatively large amount of rain that fell during the trial.
# (§1) Treatments were applied in a randomized complete block, with 5 replications per treatment. Plot size in each instance was of 6 m length, containing 20 plants. Fungicidal treatment was applied using backpack sprayer equipped with a mist blower (STHIL 340) to spray a volume of 300 liter/ha. Disease severity was evaluated by determining the leaf area covered with rust (disease severity) on each of 20 leaves randomly selected per each replicate. To analyze the results, an arc-sin transformation was performed on the raw data, and analysis of variance (ANOVA) using the SAS GLM procedure was applied to the transformed data. The Tukey-Kramer Test was applied to determine whether differences between treatments were significant. In the tables, “a”, “b” and “c”, refer to differences in statistical analysis that are familiar to users of the Tukey-Kramer test.
# rust in green onions = test: Control of rust in organically grown green onions, field spray trial (Example 3); type: in vivo, Puccinia alli; details: 2.5 g/l
# Method: as §1
# In a manner similar to that in Example 2, the effect of TG and the copper hydroxide solution were tested on organically grown green onions, by application at a rate of 500 l/ha.
# coffee plant rust = test: Coffee plant rust: compositions applied to coffee plant leaves, degree and severity of infection observed later (Example 1); type: in vivo, Hemileia vastatrix; details: applied alone
# Method: The effect of application of a TTO-containing composition (Timorex Gold®), alone and in combination with tebuconazole (simultaneous and in alternation), on coffee plant rust, was tested, by applying the compositions to coffee plant leaves and observing the degree and severity of infection later.
# [1] = 4th evaluation, 1 day after 5th treatment
# [2] = 5th evaluation, on day of 7th treatment
# [3] = 6th evaluation, 7 days after 7th treatment
# [4] = second evaluation, 2 days after second treatment
# [5] = third evaluation, on day of fourth treatment
Compound,40 d.a.a. % green relative to control (rust in garlic plants; 40 d.a.a.),40 d.a.a.: % green (rust in garlic plants; 40 d.a.a.),Day 0 % of infected area (rust in garlic plants; baseline before spraying),Effectiveness in eradicating relative to control (rust in garlic plants; six days after fifth application),"% of infected area (rust in garlic plants; six days after fifth application, 300 liter/ha)",% area infected by rust (rust in green onions; [1]),"Efficacy of treatment, % (rust in green onions; [1])",% area infected by rust (rust in green onions; [2]),"Efficacy of treatment, % (rust in green onions; [2])",% area infected by rust (rust in green onions; [3]),"Efficacy of treatment, % (rust in green onions; [3])","% area infected by rust (rust in green onions; first evaluation, before treatment)",% area infected by rust (rust in green onions; [4]),"Efficacy of treatment, % (rust in green onions; [4])",% area infected by rust (rust in green onions; [5]),"Efficacy of treatment, % (rust in green onions; [5])",retention of leaves by the plants (coffee plant rust),severity of the disease (coffee plant rust; coffee plants)
"[Cu+2].[OH-].[OH-] [Copper hydroxide, copper hydroxide]",206.1%,60.0 a %,0.2 a %,53.0,27.0 b %,8.5 b %,70.3%,12.5 b %,76.9%,18.7 b %,75.1%,0.3 a %,1.8 ab %,62.1%,2.5 b %,79.2%,–,–
CC(C)(C)C(O)(CCc1ccc(Cl)cc1)Cn1cncn1 (stereo not drawn) [tebuconazole],–,–,–,–,–,–,–,–,–,–,–,–,–,–,–,–,higher retention of leaves,overall lower severity of the disease
